From ChEMBL document CHEMBL1201862, “PubChem BioAssay data set” (2004)
Activity calls are given as the source filed them.

Experiments:
[1] = molecular target: T1, Corticotropin-releasing factor receptor 2/Corticotropin-releasing factor-binding protein (Homo sapiens, UniProt P24387+Q13324); assay: Dose Response confirmation of uHTS hits for small molecule antagonists of the CRF-binding protein and CRF-R2 receptor complex.; format: functional; details: read-out: IC50_Mean
T1 sequence (Q13324 whole entry): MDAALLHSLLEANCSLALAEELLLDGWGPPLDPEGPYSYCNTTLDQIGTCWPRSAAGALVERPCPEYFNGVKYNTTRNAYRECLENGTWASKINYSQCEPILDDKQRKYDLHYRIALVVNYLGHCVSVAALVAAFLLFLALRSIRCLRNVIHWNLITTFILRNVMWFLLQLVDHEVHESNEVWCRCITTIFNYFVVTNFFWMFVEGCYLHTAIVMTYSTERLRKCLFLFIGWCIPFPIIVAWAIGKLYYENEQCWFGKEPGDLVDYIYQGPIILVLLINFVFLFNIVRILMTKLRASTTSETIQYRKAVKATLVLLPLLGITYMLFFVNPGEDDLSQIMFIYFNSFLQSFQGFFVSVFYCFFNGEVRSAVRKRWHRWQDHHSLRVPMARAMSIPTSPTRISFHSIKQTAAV
T1 sequence (P24387 whole entry): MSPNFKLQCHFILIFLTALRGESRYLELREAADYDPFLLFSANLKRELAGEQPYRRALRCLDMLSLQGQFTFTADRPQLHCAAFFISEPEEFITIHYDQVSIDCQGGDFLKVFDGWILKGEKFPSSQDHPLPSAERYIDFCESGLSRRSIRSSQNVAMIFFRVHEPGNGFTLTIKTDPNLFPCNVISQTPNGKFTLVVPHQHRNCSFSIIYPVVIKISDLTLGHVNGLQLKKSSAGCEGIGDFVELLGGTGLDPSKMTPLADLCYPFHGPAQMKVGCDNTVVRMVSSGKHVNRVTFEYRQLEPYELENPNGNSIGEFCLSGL

[2] = molecular target: T1, Corticotropin-releasing factor receptor 2/Corticotropin-releasing factor-binding protein; assay: activators of CRF receptor 2 with binding protein – uHTS hits, confirmation (AID 602473); format: functional; details: read-out: EC50_Mean
[3] = blockers of CRF-binding protein–CRF-R2 complex – cell-based, uHTS hits, 384-well, dose response (AID 651639); format: functional, Homo sapiens; details: read-out: IC50_Mean
fMet-Leu-Phe receptor = fMet-Leu-Phe receptor (Homo sapiens, UniProt P21462); assay: formyl peptide receptor binders – dose response (AID 519); format: functional
fMet-Leu-Phe receptor, sequence (P21462 whole entry): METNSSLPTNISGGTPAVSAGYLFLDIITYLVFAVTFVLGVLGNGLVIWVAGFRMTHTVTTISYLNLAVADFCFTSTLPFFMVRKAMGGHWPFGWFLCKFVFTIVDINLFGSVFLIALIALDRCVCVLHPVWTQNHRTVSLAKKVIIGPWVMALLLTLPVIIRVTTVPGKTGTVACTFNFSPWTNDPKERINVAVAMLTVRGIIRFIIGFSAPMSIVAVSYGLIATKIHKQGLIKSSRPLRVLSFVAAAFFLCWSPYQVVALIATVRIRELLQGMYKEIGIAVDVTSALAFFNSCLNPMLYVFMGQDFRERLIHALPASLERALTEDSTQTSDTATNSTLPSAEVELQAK

[4] = HGIII-sPLA2 enzyme inhibition potency – biochemical, QFRET, IC50, dose response (AID 743457);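 also: green fluorescence rise as the enzyme cleaves BODIPY PC-A2 in liposomes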
[5] = molecular target: Nuclear receptor subfamily 5 group A member 2 (Homo sapiens, UniProt O00482); format: functional, cell-based;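 also: HEK293T cells transfected with LRH-1 and a StAR promoter luciferase reporter; potency for inhibitors that lower LRH-1 driven reporter light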
Nuclear receptor subfamily 5 group A member 2, sequence (O00482 whole entry): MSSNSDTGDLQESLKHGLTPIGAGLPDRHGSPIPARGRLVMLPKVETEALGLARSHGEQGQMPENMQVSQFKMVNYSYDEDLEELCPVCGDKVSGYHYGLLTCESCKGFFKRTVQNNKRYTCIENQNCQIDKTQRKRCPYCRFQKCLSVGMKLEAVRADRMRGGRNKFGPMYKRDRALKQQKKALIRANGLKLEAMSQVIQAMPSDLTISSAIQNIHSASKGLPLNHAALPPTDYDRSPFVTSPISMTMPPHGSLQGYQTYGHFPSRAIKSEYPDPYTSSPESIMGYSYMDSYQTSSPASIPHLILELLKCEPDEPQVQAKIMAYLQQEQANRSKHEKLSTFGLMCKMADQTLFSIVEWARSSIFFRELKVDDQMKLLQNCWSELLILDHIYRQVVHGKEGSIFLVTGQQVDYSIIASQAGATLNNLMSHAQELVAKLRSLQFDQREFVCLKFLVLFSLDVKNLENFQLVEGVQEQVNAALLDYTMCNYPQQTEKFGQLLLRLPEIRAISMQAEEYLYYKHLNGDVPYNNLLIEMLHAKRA

Steroidogenic factor 1 = Steroidogenic factor 1 (Homo sapiens, UniProt Q13285); assay: Counterscreen for inverse agonists of the liver receptor homolog-1 (LRH-1; NR5A2): Luminescence-based cell-based high throughput dose response assay to identify inverse agonists of the Steroidogenic Factor 1 Nuclear Receptor (SF1; NR5A1).; format: functional
Steroidogenic factor 1, sequence (Q13285 whole entry): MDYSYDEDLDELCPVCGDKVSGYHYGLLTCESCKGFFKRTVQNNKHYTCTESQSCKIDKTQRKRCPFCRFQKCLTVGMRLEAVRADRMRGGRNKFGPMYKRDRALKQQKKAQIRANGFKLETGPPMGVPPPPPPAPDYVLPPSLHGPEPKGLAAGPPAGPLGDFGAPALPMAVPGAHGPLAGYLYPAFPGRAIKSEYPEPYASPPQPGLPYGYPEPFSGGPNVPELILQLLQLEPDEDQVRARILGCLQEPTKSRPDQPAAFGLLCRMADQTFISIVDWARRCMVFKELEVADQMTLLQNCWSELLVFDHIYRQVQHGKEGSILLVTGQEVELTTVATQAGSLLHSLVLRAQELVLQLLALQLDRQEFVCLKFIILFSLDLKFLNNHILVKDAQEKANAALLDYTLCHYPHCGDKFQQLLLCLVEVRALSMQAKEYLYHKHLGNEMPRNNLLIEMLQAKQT

[6] = nonselective StAR promoter luciferase inhibitors – cell-based, luminescence, luciferase reporter, counter-screen for LRH-1 inverse agonist project, dose response (AID 651969); format: functional
cells [7] = format: functional, cell-based
[8] = molecular target: T2, Trace amine-associated receptor 1 (Homo sapiens, UniProt Q96RJ0); assay: Fluorescence-based cell-based high throughput dose response assay to identify agonists of the human trace amine associated receptor 1 (TAAR1).; format: functional
T2 sequence (Q96RJ0 whole entry): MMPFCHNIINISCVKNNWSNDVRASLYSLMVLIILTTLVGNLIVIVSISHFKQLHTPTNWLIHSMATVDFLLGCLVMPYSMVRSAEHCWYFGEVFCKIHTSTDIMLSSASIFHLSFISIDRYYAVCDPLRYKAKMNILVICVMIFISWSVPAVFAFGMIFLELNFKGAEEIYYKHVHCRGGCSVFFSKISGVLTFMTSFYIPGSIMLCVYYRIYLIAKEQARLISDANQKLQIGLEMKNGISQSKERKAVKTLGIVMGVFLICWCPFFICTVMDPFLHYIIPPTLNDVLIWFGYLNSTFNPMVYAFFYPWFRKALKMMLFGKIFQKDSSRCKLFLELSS

[9] = molecular target: T2, Trace amine-associated receptor 1; assay: Counterscreen for agonists of the human trace amine associated receptor 1 (hTAAR1): Fluorescence-based cell-based high throughput dose response assay to identify hTAAR1 agonist that also desensitize TAAR1 receptor response.; format: functional
cells [10] = format: functional, cell-based; remark: listed apart in the source
[11] = molecular target: Mitogen-activated protein kinase 10 (Homo sapiens, UniProt P53779); assay: Dose response biochemical screening assay for inhibitors of c-Jun N-Terminal Kinase 3 (JNK3). [Related pubchem assays: 746 ]
Mitogen-activated protein kinase 10, sequence (P53779 whole entry): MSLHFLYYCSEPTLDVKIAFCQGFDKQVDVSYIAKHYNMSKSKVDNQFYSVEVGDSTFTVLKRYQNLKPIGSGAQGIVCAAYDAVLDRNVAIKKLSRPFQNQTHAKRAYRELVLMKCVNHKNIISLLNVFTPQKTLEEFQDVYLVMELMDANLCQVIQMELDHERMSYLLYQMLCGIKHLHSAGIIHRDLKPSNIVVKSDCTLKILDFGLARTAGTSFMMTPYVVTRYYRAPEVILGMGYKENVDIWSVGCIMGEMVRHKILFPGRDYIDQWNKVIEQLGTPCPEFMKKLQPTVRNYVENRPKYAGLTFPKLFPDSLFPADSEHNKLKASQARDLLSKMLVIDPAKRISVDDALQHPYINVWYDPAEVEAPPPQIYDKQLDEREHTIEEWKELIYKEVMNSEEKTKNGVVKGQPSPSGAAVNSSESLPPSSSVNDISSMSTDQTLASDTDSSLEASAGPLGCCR

Protein skinhead-1 = molecular target: T3, Protein skinhead-1 (Caenorhabditis elegans, UniProt P34707); format: functional
T3 sequence (P34707 whole entry): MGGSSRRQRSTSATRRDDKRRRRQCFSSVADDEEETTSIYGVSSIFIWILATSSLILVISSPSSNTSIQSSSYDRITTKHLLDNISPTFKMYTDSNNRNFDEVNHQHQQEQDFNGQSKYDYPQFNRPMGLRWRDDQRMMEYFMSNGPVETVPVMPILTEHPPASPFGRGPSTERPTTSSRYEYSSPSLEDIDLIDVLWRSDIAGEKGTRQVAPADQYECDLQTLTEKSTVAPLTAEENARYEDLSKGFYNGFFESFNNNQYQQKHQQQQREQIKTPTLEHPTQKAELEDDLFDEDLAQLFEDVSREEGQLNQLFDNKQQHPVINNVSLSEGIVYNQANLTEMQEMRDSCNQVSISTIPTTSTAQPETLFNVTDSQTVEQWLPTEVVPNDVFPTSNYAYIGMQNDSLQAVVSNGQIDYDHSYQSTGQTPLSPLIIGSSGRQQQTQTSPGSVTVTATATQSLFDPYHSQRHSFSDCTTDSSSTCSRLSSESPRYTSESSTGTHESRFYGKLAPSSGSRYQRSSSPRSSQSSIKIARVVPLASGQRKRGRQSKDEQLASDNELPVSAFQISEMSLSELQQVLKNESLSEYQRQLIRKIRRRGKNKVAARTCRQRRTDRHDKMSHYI

[12] = molecular target: Fructose-bisphosphate aldolase (Mycobacterium tuberculosis, UniProt P9WQA3); assay: Fluorescence-based biochemical high throughput dose response assay for inhibitors of the fructose-bisphosphate aldolase (FBA) of M. tuberculosis.; format: functional
Fructose-bisphosphate aldolase, sequence (P9WQA3 whole entry): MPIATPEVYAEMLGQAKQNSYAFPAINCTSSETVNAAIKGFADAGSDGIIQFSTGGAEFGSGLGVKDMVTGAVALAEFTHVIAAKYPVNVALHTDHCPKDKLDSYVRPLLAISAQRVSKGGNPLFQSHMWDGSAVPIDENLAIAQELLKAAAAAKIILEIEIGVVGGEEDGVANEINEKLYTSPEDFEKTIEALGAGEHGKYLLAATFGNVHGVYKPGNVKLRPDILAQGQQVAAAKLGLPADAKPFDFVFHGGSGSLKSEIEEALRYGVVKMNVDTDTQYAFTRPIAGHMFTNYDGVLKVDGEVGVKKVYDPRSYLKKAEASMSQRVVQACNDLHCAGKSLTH

[13] = potency of ADAM10 substrate cleavage blockers – biochemical, QFRET, dose response (AID 743254);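 also: ADAM10 enzyme with the DM2 quenched FRET peptide as substrate; EDANS fluorescence gain as the protease cuts the substrate; inhibitor potency against ADAM10 proteolytic activity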
[14] = molecular target: T4, Disintegrin and metalloproteinase domain-containing protein 17 (Homo sapiens, UniProt P78536); assay: exosite inhibitors of ADAM17, dose response, biochemical (AID 743260)
T4 sequence (P78536 whole entry, the tested form may be a part): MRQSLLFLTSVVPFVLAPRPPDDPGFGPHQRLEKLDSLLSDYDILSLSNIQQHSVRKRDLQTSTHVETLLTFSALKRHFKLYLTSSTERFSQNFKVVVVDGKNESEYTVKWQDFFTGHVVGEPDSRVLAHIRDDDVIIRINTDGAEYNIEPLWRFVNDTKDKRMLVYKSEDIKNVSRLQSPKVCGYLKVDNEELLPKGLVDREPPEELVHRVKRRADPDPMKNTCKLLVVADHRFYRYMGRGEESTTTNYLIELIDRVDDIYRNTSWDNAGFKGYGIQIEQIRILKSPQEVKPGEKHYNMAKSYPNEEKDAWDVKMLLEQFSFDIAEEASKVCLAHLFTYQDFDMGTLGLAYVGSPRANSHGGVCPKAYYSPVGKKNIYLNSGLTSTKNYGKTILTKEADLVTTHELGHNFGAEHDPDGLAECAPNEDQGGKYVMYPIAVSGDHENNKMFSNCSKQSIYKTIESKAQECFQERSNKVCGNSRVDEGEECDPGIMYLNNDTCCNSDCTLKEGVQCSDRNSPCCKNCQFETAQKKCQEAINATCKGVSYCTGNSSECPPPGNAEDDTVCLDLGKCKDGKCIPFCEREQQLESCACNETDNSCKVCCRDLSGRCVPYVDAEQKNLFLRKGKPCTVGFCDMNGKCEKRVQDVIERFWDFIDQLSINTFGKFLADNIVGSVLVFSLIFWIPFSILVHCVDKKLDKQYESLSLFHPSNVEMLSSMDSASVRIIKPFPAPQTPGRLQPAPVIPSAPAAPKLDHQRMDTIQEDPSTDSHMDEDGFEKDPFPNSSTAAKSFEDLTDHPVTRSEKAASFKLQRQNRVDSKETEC

[15] = inhibition of ADAM10 peptide cleavage – biochemical, FRET peptide substrate, recombinant human ADAM10, selectivity assay for ADAM17 exosite inhibitor project, dose response (AID 743259);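 also: ADAM10 enzyme cleaving a FRET peptide substrate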
[16] = molecular target: T4, Disintegrin and metalloproteinase domain-containing protein 17; assay: inhibition of ADAM17 substrate cleavage – biochemical, quenched FRET substrate, counter-screen for ADAM10 exosite inhibitor project, dose response (AID 743253)
Paired box protein Pax-8 = Paired box protein Pax-8 (Homo sapiens, UniProt Q06710); assay: PAX8 transcriptional activity inhibition in RMG-I – RMG-I cells, luciferase, cherry-pick, dose response (AID 687027); format: functional, cell-based;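 also: luciferase reporter driven by Pax8 target thyroperoxidase promoter measured by SteadyGlo luminescence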
Paired box protein Pax-8, sequence (Q06710 whole entry): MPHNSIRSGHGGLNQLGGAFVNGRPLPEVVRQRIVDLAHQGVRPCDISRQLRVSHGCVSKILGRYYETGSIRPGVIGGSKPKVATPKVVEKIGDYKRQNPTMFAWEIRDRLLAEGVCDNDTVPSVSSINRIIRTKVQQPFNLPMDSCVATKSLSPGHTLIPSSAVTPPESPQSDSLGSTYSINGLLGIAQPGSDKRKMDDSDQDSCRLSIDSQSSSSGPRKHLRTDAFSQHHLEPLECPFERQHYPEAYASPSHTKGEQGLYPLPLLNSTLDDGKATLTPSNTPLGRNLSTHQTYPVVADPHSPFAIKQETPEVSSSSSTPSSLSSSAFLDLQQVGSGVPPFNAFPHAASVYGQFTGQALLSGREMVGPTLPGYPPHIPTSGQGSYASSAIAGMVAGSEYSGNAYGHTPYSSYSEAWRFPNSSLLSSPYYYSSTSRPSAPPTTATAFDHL

[17] = OVCAR-3 cell viability loss – plate reader, dry powder samples, PAX8 inhibitor project, dose response (AID 743044); format: functional, cell-based
[18] = IGROV1 cell killing – plate reader, dry powder samples, PAX8 inhibitor project, dose response (AID 743043); format: functional, cell-based; details: IGROV-1
[19] = general cell-killing toxicity readout – plate reader, dry powder samples, cytotoxicity control for PAX8 inhibitor project, dose response (AID 743021); format: functional, cell-based
[20] = OVCAR8 cell viability loss – plate reader, dry powder samples, PAX8 project, dose response (AID 743197); format: functional, cell-based; details: OVCAR-8
[21] = Luminescence Cell-Based Dose Confirmation HTS to Identify Activators of 5'UTR Stem-Loop Driven Alpha-Synuclein mRNA Translation in H4 Neuroglioblastoma Cells. [Related pubchem assays: 1829 (Project Summary), 1814 (Primary HTS)]; format: functional
[22] = Luminescence Cell-Based Dose Response HTS to Identify Activators of Luciferase Translation or Activity in H4 […] Cells. [Related pubchem assays: 1829 (Project Summary), 1814 (Primary HTS)]; format: functional
H4 = assay: Luminescence Cell-Based Dose Response HTS to Identify Activators of 5'UTR Stem-Loop Driven Prion Protein mRNA Translation in H4 Neuroglioblastoma Cells. [Related pubchem assays: 1829 (Project Summary), 1814 (Primary HTS)]; format: functional; details: Homo sapiens
cells [23] = details: A549
cells [24] = details: HEK293
[25] = T. cruzi growth inhibition in host cells, dose response, cell-based, plate reader, dry powder, set 2 (AID 652275); format: functional

For `COc1cccc(CN2C(=O)C(C)N(C(=O)c3ccccc3)c3ccccc32)c1` (stereo unspecified), the IC50 [1] was 26.9 µM (active), the EC50 [2] was > 53 µM (inactive) and the IC50 [3] was 9.26 µM (active).
With `COc1ccc(C(=O)C2=C(O)C(=O)N(CCN3CCOCC3)C2c2ccc(C)cc2)cc1` (stereo unspecified) the Ki (fMet-Leu-Phe receptor) was > 66.7 µM (inactive).
With `Cn1cccc1CC(=O)NN=C(S)Nc1ccccc1Cl` the IC50 [4] was > 122 µM (inactive).
For `O=C(COc1ccc2c3c(c(=O)oc2c1)CCC3)NCc1ccncc1`, the IC50 [5] was 35.9 µM (inactive), the IC50 (Steroidogenic factor 1) was 35.9 µM (inactive) and the IC50 [6] was 35.9 µM (inactive).
With `CC(=O)c1ccc(NC(=O)Nc2ccccc2)cc1` the IC50 (cells [7]) was 29.8 µM (inactive), the EC50 [8] was 3.14 µM (active) and the IC50 [9] was > 3.32 µM (active). For the same compound, the EC50 (cells [10]) was > 29.9 µM (inactive).
In the case of `O=C(Nc1ccc(-c2nc3cccnc3s2)cc1)c1ccco1`, the IC50 [11] is reported as > 93.1 µM (not active), the IC50 (Protein skinhead-1) is reported as 83.1 µM (inactive) and the IC50 [12] is reported as 1.32 µM (active).
In the case of `OCc1ccc2c(c1)c(-c1ccc3c(c1)OCCO3)c(-c1ccccc1)n2-c1ccccc1`, the IC50 [12] is reported as 0.913 µM (active).
In the case of `Cc1cc(Br)ccc1NC(=O)CN1C(=O)C2CC=CCC2C1=O` (stereo unspecified), the IC50 [5] is reported as 0.169 µM (active), the IC50 (Steroidogenic factor 1) is reported as 0.105 µM (active) and the IC50 [6] is reported as 35.9 µM (inactive).
For `O=C(CSc1ccc(Cl)cc1Cl)N1CCC(c2nc3ccccc3s2)CC1`, the IC50 [13] was 22.1 µM (inactive), the IC50 [14] was > 69.5 µM (inactive) and the IC50 [15] was 18.8 µM (inactive). For the same compound, the IC50 [16] was > 69.5 µM (inactive).
With `O=S(=O)(Nc1cc(Cl)ccc1-n1cncn1)c1ccccc1Cl` the IC50 [1] was 32.6 µM (active), the EC50 [2] was > 53 µM (inactive) and the IC50 [3] was > 20 µM (inactive).
In the case of `C=CCC[C@@H](Cc1ccc(F)cc1)C(=O)OC[C@@H](NC(=O)[C@H](CC=C)CC(=O)N(CCO)Cc1ccccc1)c1ccccc1`, the IC50 [13] is reported as 27.4 µM (inactive) and the IC50 [16] is reported as > 69.5 µM (inactive).
With `Cc1cc(O)nc(Nc2cccc(F)c2)n1` the IC50 (cells [7]) was > 29.9 µM (inactive), the EC50 [8] was 8.54 µM (active) and the IC50 [9] was > 29.9 µM (inactive). The EC50 (cells [10]) was > 29.9 µM (inactive).
In the case of `C[C@H](CO)N1C[C@H](C)[C@H](CN(C)Cc2ccc(C(F)(F)F)cc2)OCCCC[C@H](C)Oc2ccc(NS(=O)(=O)c3ccccc3)cc2C1=O`, the AC50 (Paired box protein Pax-8) is reported as 9.01 µM (active), the AC50 [17] is reported as 45 µM (active) and the AC50 [18] is reported as 55.8 µM (active). For the same compound, the AC50 [19] was 55.7 µM (active) and the AC50 [20] was 48.9 µM (active).
For `C[C@@H]1CN([C@@H](C)CO)C(=O)Cc2cc(NC(=O)Nc3ccc4c(c3)OCO4)ccc2O[C@H]1CN(C)CC1CCCCC1`, the AC50 (Paired box protein Pax-8) was 9.15 µM (active), the AC50 [17] was 37 µM (active) and the AC50 [18] was 58.1 µM (active).
With `COC(=O)c1cc(=O)n(Cc2ccc3c(c2)OCO3)/c(=N/c2ccc(F)c(Cl)c2)s1` the EC50 [21] was 10.4 µM (active), the EC50 [22] was > 120 µM (not active) and the EC50 (H4) was > 120 µM (not active). The AC50 (cells [23]) was 23.3 µM (active) and the AC50 (cells [24]) was 20 µM (active).
With `CN(C)C(=O)c1ccc(-c2ccc([C@H]3[C@H](CO)N4CCCCN(Cc5cncnc5)C[C@@H]34)cc2)cc1` the AC50 [25] was 0.472 µM (active).
